Data reported in article PMC3226828 (Journal of medicinal chemistry, 2011).

Columns and labels:
[1] = system: 68 GPCRs, ion channels and transporters; test: Ricerca Lead Profiling Screen; type: binding; conditions: 10 µM; all 68 assays
[2] = system: haloperidol-induced catalepsy; test: reversal of haloperidol-induced catalepsy; type: in vivo; conditions: rat, p.o., haloperidol 0.75 mg/kg, 30 min, vs vehicle control
mGlu1,2,3 = conditions: 10 point concentration-response prior to EC20 agonist
[3] = rat in vivo pharmacokinetics, IV and PO; conditions: for CL / clearance: IV 1 mg/kg, hydrochloride, 10% EtOH, 80% PEG-400, 10% saline; for clearance: CL
[4] = IV cassette pharmacokinetics in beagle dog; conditions: in vivo
[5] = IV cassette pharmacokinetics in rhesus monkey; conditions: in vivo
[6] = previously reported tool compounds; cited from earlier work
[7] = previously reported tool compounds; cited from earlier work; remark: listed apart in the source
[8] = disclosed mGlu4 PAMs; cited from earlier work

O=C(Nc1ccc(N2C(=O)[C@@H]3[C@H](C2=O)[C@@H]2C=C[C@H]3C2)c(Cl)c1)c1ccccn1 [15f]
inhibition of radioligand binding [1]: ≤ 50%
reversal of haloperidol-induced catalepsy [2]: produced a reversal of haloperidol-induced catalepsy
reversal of haloperidol-induced catalepsy ([2]; listed as ML182): orally active
activity at mGlu 1, 2, 3 (mGlu1,2,3): inactive
CL ([3]; 1 mg/kg): 36.9 mL/min/kg
MRT ([3]; in vivo, iv, 1 mg/kg): 8.22 h
Vd ([3]; in vivo, iv, 1 mg/kg): 18 L/kg
half-life ([3]; in vivo, iv, 1 mg/kg): 40.4 min
clearance ([3]; in vivo, iv, 1 mg/kg): 37 mL/min/kg
AUC(0-t) ([3]; in vivo, po, 10 mg/kg): 4350 ng·h/mL

O=C(Nc1ccc(N2C(=O)CC3(CCCCC3)C2=O)c(Cl)c1)c1ccccn1 [15j, N-(3-Chloro-4-(1,3-dioxo-2-azaspiro[4.5]decan-2-yl)phenyl)picolinamide]
CL ([3]; 1 mg/kg): 48.3 mL/min/kg
MRT ([3]; in vivo, iv, 1 mg/kg): 0.953 h
clearance ([3]; in vivo, iv, 1 mg/kg): 48 mL/min/kg

O=C(Nc1ccc(N2C(=O)CC(c3ccccc3)C2=O)c(Cl)c1)c1ccccn1 (centres unmarked) [15k, N-(3-Chloro-4-(2,5-dioxo-3-phenylpyrrolidin-1-yl)phenyl)picolinamide]
MRT ([3]; in vivo, iv, 1 mg/kg): 1.82 h
clearance ([3]; in vivo, iv, 1 mg/kg): 5.4 mL/min/kg
clearance [4]: 7 mL/min/kg
clearance [5]: 3 mL/min/kg

COc1cc(NC(=O)c2ccccn2)ccc1Cl [compound 2]
rat CLHEP [6]: 65.5 mL/min/kg
rPPB (%fu) [7]: 2.4 %fu
CNS penetration when dosed systemically [8]: CNS penetrant
